The record followed here is US20210161902A1, “EPICHAPEROME INHIBITOR THERAPY FOR TRAUMATIC BRAIN INJURY AND SEQUELAE THEREOF” (Samus Therapeutics, Inc, priority 2017, published 2021).

The target of this assay is Hsp90 such as brain Hsp90. The assay is described as follows: EC50 for binding to Hsp90 such as brain Hsp90. To be noted: concentration yielding half-maximal binding to Hsp90 such as brain Hsp90, or halving binding in a competition assay. The text has this:
Brain uptake may be indicative of binding of the epichaperome inhibitor to Hsp90 and preferably to brain Hsp90. Such binding assays may be carried out as described in published PCT application WO2008/005937.
BBB-permeable epichaperome inhibitors to be used in the methods provided herein may be further characterized by their EC50 for binding to Hsp90 such as brain Hsp90. (EC50, in this context, refers to the concentration of the inhibitor that yields half-maximal binding of the inhibitor to Hsp90 such as brain Hsp90, or alternatively if the measurement is performed in a competition assay it is the concentration of inhibitor at which the binding to Hsp90 is reduced by half.) Certain inhibitors may have an EC50 of 100 nM or less, including about 90 nM, about 80 nM, about 85 nM, about 70 nM, about 60 nM, about 50 nM, about 40 nM, about 30 nM, about 20 nM, about 10 nM, about 9 nM, about 8 nM, about 7 nM, about 6 nM, about 5 nM, about 4 nM, about 3 nM, about 2 nM, or about 1 nM. The EC50 might range from 0.1 to 10 nM, from 0.1 to 9 nM, from 0.1 to 8 nM, from 0.1 to 7 nM, from 0.1 to 6 nM, or from 0.1 to 5 nM. The EC50 might range from 0.1 to 20 nM, from 0.1 to 18 nM, from 0.1 to 15 nM, from 0.1 to 12 nM, or from 0.1 to 10 nM. In some instances, certain inhibitors have an EC50 of about 5-7 nM. […] In other instances, certain inhibitors have an EC50 of about 80-90 nM.

Molecules are shown by their SMILES.

With `CC(C)(C)CNCCn1c(Sc2cc3c(cc2I)OCO3)nc2c(N)ncnc21` [Compound 1], a half-maximal effect (EC50) was put at 6.9 nM.
